The supplement of paper PMC11451515

Columns and labels:
Assay in all cases: AUC of viability dose-response curve (% viability x log10 dose units); higher = less sensitive
Settings in all cases: 48 h
SEM cells = test system: SEM cells
How it was run: (§1)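 Leukemia cells adapted to each medium were seeded in 1536-well plates (500 or 1000 cells/well) and given library compounds in DMSO for 48 h at 37°C. The 11 threefold doses spanned 47 μM to 0.79 nM, and CellTiter-Glo One luminescence was normalised per plate to DMSO and cell-free wells before four-parameter log-logistic fitting on log10 dose. Area under the curve was integrated with the trapezoidal rule, scaling curves above full viability and removing curves that failed quality control.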

P12-Ichikawa = test system: P12-Ichikawa
How it was run: as §1

NOMO1 = test system: NOMO1
How it was run: as §1

[1] = RPMI 5 mM glucose + 10% dialyzed FBS

| Structure (SMILES) | AUC of viability dose-response curve (SEM cells; HPLM + 10% dialyzed FBS) | AUC of viability dose-response curve (SEM cells; RPMI 5 mM glucose + 10% FBS) | AUC of viability dose-response curve (SEM cells; [1]) | AUC of viability dose-response curve (P12-Ichikawa; HPLM + 10% dialyzed FBS) | AUC of viability dose-response curve (P12-Ichikawa; RPMI 5 mM glucose + 10% FBS) | AUC of viability dose-response curve (P12-Ichikawa; [1]) | AUC of viability dose-response curve (NOMO1; HPLM + 10% dialyzed FBS) | AUC of viability dose-response curve (NOMO1; RPMI 5 mM glucose + 10% FBS) | AUC of viability dose-response curve (NOMO1; [1]) |
| --- | --- | --- | --- | --- | --- | --- | --- | --- | --- |
| CN1C(=O)C(=C\C2=C1N=C(NC3=CC=CC(=C3)C(O)=O)N=C2)/C4=C(Cl)C=CC=C4Cl | 439 | 405 | 426 | 468 | 465 | 463 | 465 | 467 | 461 |
| ClC1=CC=C2N/C3=N/C(=O)CN3CC2=C1Cl | 468 | 446 | 456 | 464 | 456 | 452 | 456 | 445 | 410 |
| COc1cc(CCc2cc(NC(=O)c3ccc(N4C[C@@H](C)N[C@@H](C)C4)cc3)n[nH]2)cc(OC)c1 | 333 | 319 | 332 | 448 | 435 | 414 | 442 | 466 | 455 |
